The record followed here is patent US8877759B2, “Aminopyrazines as ATR kinase inhibitors” (Vertex Pharnaceuticals Incorporated, priority 2011, dated 2014).

T1 sequence (Q13535 whole entry): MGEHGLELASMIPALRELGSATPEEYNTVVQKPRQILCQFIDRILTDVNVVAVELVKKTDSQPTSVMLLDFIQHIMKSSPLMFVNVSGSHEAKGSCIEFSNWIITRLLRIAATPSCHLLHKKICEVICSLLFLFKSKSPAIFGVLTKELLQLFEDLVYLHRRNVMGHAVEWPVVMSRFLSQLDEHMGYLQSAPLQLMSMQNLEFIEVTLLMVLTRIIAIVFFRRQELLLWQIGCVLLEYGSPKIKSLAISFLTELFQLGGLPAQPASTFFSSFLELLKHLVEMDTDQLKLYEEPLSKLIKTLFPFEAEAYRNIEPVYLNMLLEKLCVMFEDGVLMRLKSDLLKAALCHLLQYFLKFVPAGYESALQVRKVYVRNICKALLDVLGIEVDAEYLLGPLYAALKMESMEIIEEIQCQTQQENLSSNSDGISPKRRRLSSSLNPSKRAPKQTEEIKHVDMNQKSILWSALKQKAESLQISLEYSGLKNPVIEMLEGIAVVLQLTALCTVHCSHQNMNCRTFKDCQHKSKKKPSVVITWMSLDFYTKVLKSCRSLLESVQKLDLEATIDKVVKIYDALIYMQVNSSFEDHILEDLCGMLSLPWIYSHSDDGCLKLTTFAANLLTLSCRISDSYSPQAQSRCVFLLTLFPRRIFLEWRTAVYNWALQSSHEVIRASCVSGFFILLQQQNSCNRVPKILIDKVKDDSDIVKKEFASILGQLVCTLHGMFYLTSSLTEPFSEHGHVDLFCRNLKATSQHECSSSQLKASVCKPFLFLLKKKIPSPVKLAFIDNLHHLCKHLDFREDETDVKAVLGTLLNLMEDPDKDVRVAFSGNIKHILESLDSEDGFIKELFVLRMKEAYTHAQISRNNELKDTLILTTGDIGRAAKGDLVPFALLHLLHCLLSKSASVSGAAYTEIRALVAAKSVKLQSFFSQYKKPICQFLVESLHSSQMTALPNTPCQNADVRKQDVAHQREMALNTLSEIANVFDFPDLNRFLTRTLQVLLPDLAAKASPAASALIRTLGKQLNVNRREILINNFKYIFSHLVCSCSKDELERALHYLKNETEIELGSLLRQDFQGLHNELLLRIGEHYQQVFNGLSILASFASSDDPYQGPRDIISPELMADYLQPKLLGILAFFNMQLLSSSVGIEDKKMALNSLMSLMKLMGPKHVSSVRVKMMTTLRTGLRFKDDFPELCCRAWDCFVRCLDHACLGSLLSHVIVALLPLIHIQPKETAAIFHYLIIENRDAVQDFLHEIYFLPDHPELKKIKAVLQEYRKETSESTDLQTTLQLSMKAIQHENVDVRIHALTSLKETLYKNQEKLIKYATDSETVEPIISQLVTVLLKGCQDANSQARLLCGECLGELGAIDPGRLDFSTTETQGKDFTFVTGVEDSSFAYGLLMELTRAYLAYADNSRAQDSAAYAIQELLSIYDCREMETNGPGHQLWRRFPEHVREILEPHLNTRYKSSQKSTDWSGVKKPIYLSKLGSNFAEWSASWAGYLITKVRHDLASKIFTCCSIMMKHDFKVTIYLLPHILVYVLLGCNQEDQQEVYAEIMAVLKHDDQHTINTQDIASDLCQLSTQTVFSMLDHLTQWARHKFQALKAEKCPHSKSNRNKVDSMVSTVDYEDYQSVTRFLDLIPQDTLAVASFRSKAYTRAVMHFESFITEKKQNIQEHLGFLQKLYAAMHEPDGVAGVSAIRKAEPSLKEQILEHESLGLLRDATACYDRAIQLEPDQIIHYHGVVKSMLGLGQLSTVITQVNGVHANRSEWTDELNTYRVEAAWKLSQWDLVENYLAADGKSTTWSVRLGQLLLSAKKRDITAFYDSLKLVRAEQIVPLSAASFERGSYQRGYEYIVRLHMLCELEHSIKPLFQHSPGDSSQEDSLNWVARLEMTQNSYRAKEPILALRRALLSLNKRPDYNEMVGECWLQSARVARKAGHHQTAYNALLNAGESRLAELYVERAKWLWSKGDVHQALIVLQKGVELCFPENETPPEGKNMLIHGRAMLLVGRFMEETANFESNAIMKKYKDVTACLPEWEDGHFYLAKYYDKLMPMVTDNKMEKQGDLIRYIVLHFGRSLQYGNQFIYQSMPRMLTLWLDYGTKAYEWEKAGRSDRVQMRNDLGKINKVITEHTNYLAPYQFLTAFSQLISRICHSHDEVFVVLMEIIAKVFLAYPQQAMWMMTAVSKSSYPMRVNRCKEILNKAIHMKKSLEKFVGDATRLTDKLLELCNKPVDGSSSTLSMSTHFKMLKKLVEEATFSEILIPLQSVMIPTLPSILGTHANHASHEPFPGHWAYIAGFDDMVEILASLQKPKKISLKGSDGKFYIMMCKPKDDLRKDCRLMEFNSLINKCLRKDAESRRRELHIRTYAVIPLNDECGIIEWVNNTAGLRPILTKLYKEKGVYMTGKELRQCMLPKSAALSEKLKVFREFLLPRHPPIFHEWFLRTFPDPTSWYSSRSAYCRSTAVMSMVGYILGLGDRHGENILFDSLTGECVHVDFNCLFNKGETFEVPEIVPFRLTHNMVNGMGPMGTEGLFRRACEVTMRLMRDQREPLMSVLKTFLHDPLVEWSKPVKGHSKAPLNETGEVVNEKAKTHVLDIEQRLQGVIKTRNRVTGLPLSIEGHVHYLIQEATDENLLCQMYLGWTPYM

One assay has as its target T1, full-length ATR (Homo sapiens, UniProt Q13535).
T1 construct: Assays were carried out at 25° C. in the presence of 5 nM full-length ATR
Put plainly: ATR Inhibition Assay (radioactive-phosphate incorporation). It is filed as biochemical.
Details: not given
The procedure:
Compounds were screened for their ability to inhibit ATR kinase using a radioactive-phosphate incorporation assay. Assays were carried out in a mixture of 50 mM Tris/HCl (pH 7.5), 10 mM MgCl2 and 1 mM DTT.
Assays were carried out at 25° C. in the presence of 5 nM full-length ATR. An assay stock buffer solution was prepared containing all of the reagents listed above, with the exception of ATP and the test compound of interest. […] The plate was pre-incubated for 10 minutes at 25° C. and the reaction initiated by addition of 15 μL [γ-33P]ATP (final concentration 10 μM).
The reaction was stopped after […] by the addition of 30 μL 0.1M phosphoric acid containing 2 mM ATP. A multiscreen phosphocellulose filter 96-well plate (Millipore, Cat no. MAPHN0B50) was pretreated with 100 μL 0.2M phosphoric acid prior to the addition of 45 μL of the stopped assay mixture. The plate was washed with 5×200 μL 0.2M phosphoric acid.
After removing mean background values for all of the data points, Ki(app) data were calculated from non-linear regression analysis of the initial rate data using the Prism software package (GraphPad Prism version 3.0cx for Macintosh, GraphPad Software, San Diego Calif., USA).
For the compound `CNCc1ccc(-c2cc(-c3nc(-c4ccnc(C(C)(C)C#N)c4)cnc3N)on2)cc1` [Compound I-1, 2-[4-[5-amino-6-[3-[4-(methylaminomethyl)phenyl]isoxazol-5-yl]pyrazin-2-yl]-2-pyridyl]-2-methyl-propanenitrile], the Ki was less than 1 nM.
Still for that read-out and setting: then `CCC(C#N)(CC)c1cc(-c2cnc(N)c(-c3cc(-c4ccc(CNC)cc4)no3)n2)ccn1` [Compound I-2, 2-[4-[5-amino-6-[3-[4-(methylaminomethyl)phenyl]isoxazol-5-yl]pyrazin-2-yl]-2-pyridyl]-2-ethyl-butanenitrile], with less than 1 nM; and `CCC(C#N)c1cc(-c2cnc(N)c(-c3cc(-c4ccc(CNC)cc4)no3)n2)ccn1` (centres unmarked) [Compound I-3, 2-[4-[5-amino-6-[3-[4-(methylaminomethyl)phenyl]isoxazol-5-yl]pyrazin-2-yl]-2-pyridyl]butanenitrile], with less than 1 nM.
As for `CNCc1ccc(-c2nnc(-c3nc(-c4ccnc(C(C)(C)C#N)c4)cnc3N)o2)cc1` [Compound I-4, 2-[4-[5-amino-6-[5-[4-(methylaminomethyl)phenyl]-1,3,4-oxadiazol-2-yl]pyrazin-2-yl]-2-pyridyl]-2-methyl-propanenitrile], the Ki was less than 1 nM.
The same measure, in the same setting: then `CC(C)(C#N)c1cc(-c2cnc(N)c(-c3cc(-c4ccccc4)no3)n2)ccn1` [Compound I-5, 2-[4-[5-amino-6-(3-phenylisoxazol-5-yl)pyrazin-2-yl]-2-pyridyl]-2-methyl-propanenitrile], with less than 1 nM.
The same measure, in the same setting: then `N#CC1(c2cc(-c3cnc(N)c(-c4cc(-c5ccccc5)no4)n3)ccn2)CCOCC1` [Compound I-7, 4-[4-[5-amino-6-(3-phenylisoxazol-5-yl)pyrazin-2-yl]-2-pyridyl]tetrahydropyran-4-carbonitrile], with less than 1 nM.
Still for that read-out and setting: next, `Cc1ccsc1-c1cc(-c2nc(-c3ccnc(C(C)(C)C#N)c3)cnc2N)on1` [Compound I-8, 2-[4-[5-amino-6-[3-(3-methyl-2-thienyl)isoxazol-5-yl]pyrazin-2-yl]-2-pyridyl]-2-methyl-propanenitrile]: less than 1 nM.
For `CNCc1ccc(-c2cc(-c3nc(-c4ccnc(C5(C#N)CCOCC5)c4)cnc3N)on2)cc1` [Compound I-9, 4-[4-[5-amino-6-[3-[4-(methylaminomethyl)phenyl]isoxazol-5-yl]pyrazin-2-yl]-2-pyridyl]tetrahydropyran-4-carbonitrile], the Ki is less than 1 nM.
Same read-out and setting: then `CNCc1ccc(-c2cc(-c3nc(-c4ccnc(C(C)(C)C(N)=O)c4)cnc3N)on2)cc1` [Compound I-10, 2-[4-[5-amino-6-[3-[4-(methylaminomethyl)phenyl]isoxazol-5-yl]pyrazin-2-yl]-2-pyridyl]-2-methyl-propanamide], with less than 1 nM.
Same read-out and setting: then `CNCc1ccc(-c2cc(-c3nc(-c4ccnc(C(C)(C)C(=O)N(C)C)c4)cnc3N)on2)cc1` [Compound I-11, 2-[4-[5-amino-6-[3-[4-(methylaminomethyl)phenyl]isoxazol-5-yl]pyrazin-2-yl]-2-pyridyl]-N,N,2-trimethyl-propanamide], with less than 1 nM.
`CNCc1ccc(-c2cc(-c3nc(-c4ccnc(C5(C(N)=O)CCOCC5)c4)cnc3N)on2)cc1` [Compound I-13, 4-[4-[5-amino-6-[3-[4-(methylaminomethyl)phenyl]isoxazol-5-yl]pyrazin-2-yl]-2-pyridyl]tetrahydropyran-4-carboxamide]: the Ki is less than 1 nM.
Take `CNCc1ccc(-c2cc(-c3nc(-c4ccnc(C(C)(C)S(C)(=O)=O)c4)cnc3N)on2)cc1` [Compound I-14, 3-[3-[4-(methylaminomethyl)phenyl]isoxazol-5-yl]-5-[2-(1-methyl-1-methylsulfonyl-ethyl)-4-pyridyl]pyrazin-2-amine]: the Ki is less than 1 nM.
Take `CNCc1ccc(-c2cc(-c3nc(-c4ccnc(C(C)S(C)(=O)=O)c4)cnc3N)on2)cc1` (centres unmarked) [Compound I-15, 3-[3-[4-(methylaminomethyl)phenyl]isoxazol-5-yl]-5-[2-(1-methylsulfonylethyl)-4-pyridyl]pyrazin-2-amine]: the Ki was less than 1 nM.
Still for that read-out and setting: then `CC(C)(C#N)c1cc(-c2cnc(N)c(-c3cc(-c4ccc(C(N)CF)cc4)no3)n2)ccn1` (centres unmarked) [Compound I-16, 2-[4-[5-amino-6-[3-[4-(1-amino-2-fluoro-ethyl)phenyl]isoxazol-5-yl]pyrazin-2-yl]-2-pyridyl]-2-methyl-propanenitrile], with less than 1 nM; and `CC(C)(C#N)c1cc(-c2cnc(N)c(-c3cc(-c4ccc(CN[C@@H]5CCOC5)cc4)no3)n2)ccn1` [Compound I-17, 2-[4-[5-amino-6-[3-[4-[[[(3R)-tetrahydrofuran-3-yl]amino]methyl]phenyl]isoxazol-5-yl]pyrazin-2-yl]-2-pyridyl]-2-methyl-propanenitrile], with less than 1 nM.
Same read-out and setting: next, `CC(C)(C#N)c1cc(-c2cnc(N)c(-c3cc(-c4ccc(CNC5COC5)cc4)no3)n2)ccn1` [Compound I-18, 2-[4-[5-amino-6-[3-[4-[(oxetan-3-ylamino)methyl]phenyl]isoxazol-5-yl]pyrazin-2-yl]-2-pyridyl]-2-methyl-propanenitrile]: less than 1 nM.
Still for that read-out and setting: next, `CC(C)(C(=O)N1CCNCC1)c1cc(-c2cnc(N)c(-c3cc(-c4ccccc4)no3)n2)ccn1` [Compound I-20, 2-[4-[5-amino-6-(3-phenylisoxazol-5-yl)pyrazin-2-yl]-2-pyridyl]-2-methyl-1-piperazin-1-yl-propan-1-one]: 5 to 20 nM; `CC(C)(C(=O)NCCN1CCOCC1)c1cc(-c2cnc(N)c(-c3cc(-c4ccccc4)no3)n2)ccn1` [Compound I-21, 2-[4-[5-amino-6-(3-phenylisoxazol-5-yl)pyrazin-2-yl]-2-pyridyl]-2-methyl-N-(2-morpholinoethyl)propanamide]: 5 to 20 nM.
Consider `CC(C)(c1cc(-c2cnc(N)c(-c3cc(-c4ccccc4)no3)n2)ccn1)S(C)(=O)=O` [Compound I-22, 5-[2-(1-methyl-1-methylsulfonyl-ethyl)-4-pyridyl]-3-(3-phenylisoxazol-5-yl)pyrazin-2-amine], for which the Ki was less than 1 nM.

The assay is the same for the next values; noted with them: Ki(app); 5 nM full-length ATR, 10 μM [γ-33P]ATP, 800 μM target peptide, 25° C.
Regarding `N#CC1(c2cc(-c3cnc(N)c(-c4cc(-c5ccccc5)no4)n3)ccn2)CCNCC1` [Compound I-6, 4-[4-[5-amino-6-(3-phenylisoxazol-5-yl)pyrazin-2-yl]-2-pyridyl]piperidine-4-carbonitrile], the “ATR Ki” value is reported as “+++ (Compounds with a Ki value >5 nM but ≦1 nM are marked with “+++.”)”.
Consider `N#CC1(c2cc(-c3cnc(N)c(-c4cc(-c5ccccc5)no4)n3)ccn2)CCCNC1` (centres unmarked) [Compound I-12, 3-[4-[5-amino-6-(3-phenylisoxazol-5-yl)pyrazin-2-yl]-2-pyridyl]piperidine-3-carbonitrile], for which the “ATR Ki” value was “+++ (Compounds with a Ki value >5 nM but ≦1 nM are marked with “+++.”)”.
With `CC(C)(C#N)c1cc(-c2cnc(N)c(-c3cc(-c4ccc(CN[C@H]5CCOC5)cc4)no3)n2)ccn1` [Compound I-19, 2-[4-[5-amino-6-[3-[4-[[[(3S)-tetrahydrofuran-3-yl]amino]methyl]phenyl]isoxazol-5-yl]pyrazin-2-yl]-2-pyridyl]-2-methyl-propanenitrile], the Ki was less than 1 nM.
Consider `CC(C)(c1cc(-c2cnc(N)c(-c3cc(-c4ccccc4)no3)n2)ccn1)S(=O)(=O)C1CCNCC1` [Compound I-23, 5-[2-[1-methyl-1-(4-piperidylsulfonyl)ethyl]-4-pyridyl]-3-(3-phenylisoxazol-5-yl)pyrazin-2-amine], for which the “ATR Ki” value was “+++ (Compounds with a Ki value >5 nM but ≦1 nM are marked with “+++.”)”.
